In patent publication US20230382911A1 (Hoffmann-La Roche Inc., priority 2021, published 2023) one finds IC50 data, which are given here for 22 compounds.

The target in the experiment is Recombinant human Mat2a (Homo sapiens (Human), UniProt P31153). Description: Determination of Mat2A activity: 384 well format absorbance-based Mat2A inhibition assay. The note with it: 12.5 nM Mat2A, 100 μM ATP and Methionine, 2% DMSO, 120 minutes at RT, Biomol Green, absorbance at 635 nm. Type of experiment: biochemical. The protocol:
Determination of Mat2A Activity
Measurement of Mat2A inhibition is performed in 384 well format absorbance-based assay.
Recombinant human Mat2a (12.5 nM) and serial diluted compounds in DMSO (range of concentrations from 10 μM to […]) or controls (DMSO) are incubated for 15 minutes at room temperature (RT) in assay buffer containing 50 mM HEPES pH 7.5, 50 mM KCl, 50 mM MgCl2, 0.01% Tween 20 and 10 mM DTT. The reaction is initiated by the addition of the combined substrates ATP and Methionine, each at a final concentration of 100 μM. Final assay condition are 12.5 nM Mat2A, 100 μM ATP and Methionine Substrates and 2% DMSO. After 120 minutes of incubation at RT, the reaction is stopped by the addition of Biomol Green. The absorbance signal is measured at λ=635 nm with a multiplate reader (BMG Pherastar reader or equivalent) after 30 min of equilibration at RT.

The IC50 is the concentration that gives 50% inhibition.

Chain of Recombinant human Mat2a (P31153 whole entry): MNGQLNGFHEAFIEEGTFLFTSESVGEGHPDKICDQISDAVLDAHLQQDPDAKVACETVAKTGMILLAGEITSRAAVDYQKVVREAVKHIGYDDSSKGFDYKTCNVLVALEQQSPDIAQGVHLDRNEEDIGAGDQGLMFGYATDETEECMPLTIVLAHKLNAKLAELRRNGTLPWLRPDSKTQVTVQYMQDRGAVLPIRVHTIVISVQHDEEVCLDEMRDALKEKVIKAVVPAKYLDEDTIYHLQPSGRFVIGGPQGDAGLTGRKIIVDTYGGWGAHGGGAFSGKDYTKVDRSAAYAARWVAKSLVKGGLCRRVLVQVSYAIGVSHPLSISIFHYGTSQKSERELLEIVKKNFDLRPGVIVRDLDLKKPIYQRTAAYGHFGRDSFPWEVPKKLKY

With `CC1OCCC1C(=O)n1nc(N)c2ccc(C3CC3)nc21` (stereo not shown) [Example 64, (3-amino-6-cyclopropyl-1H-pyrazolo[3,4-b]pyridin-1-yl)(2-methyltetrahydrofuran-3-yl)methanone], the IC50 was 0.041 µM.
Next, `Cc1ccccc1C(=O)n1nc(N)c2ccc(C(F)(F)F)nc21` [Example 25, (3-amino-6-(trifluoromethyl)-1H-pyrazolo[3,4-b]pyridin-1-yl)(o-tolyl)methanone]: 0.29 µM; `COc1ccccc1C(=O)n1nc(N)c2ccc([C@H]3C[C@@H]3C)nc21` (racemic) [Example 34, (3-amino-6-((1RS,2RS)-2-methylcyclopropyl)-1H-pyridin-3-pyrazolo[3,4-b]pyridin-1-yl)(2-methoxyphenyl)methanone]: 0.029 µM; `Cc1ccccc1C(=O)n1nc(N)c2ccc(C3CCCC3)nc21` [Example 29, (3-amino-6-cyclopentylpyrazolo[3,4-b]pyridin-1-yl)-(2-methylphenyl)methanone]: 0.48 µM.
Next, `COc1ccccc1C(=O)n1nc(N)c2ccc(C3CC3(F)F)nc21` (stereo not shown) [Example 40, (3-amino-6-(2,2-difluorocyclopropyl)-1H-pyrazolo[3,4-b]pyridin-1-yl)(2-methoxyphenyl)methanone]: 0.032 µM; `Cc1ccccc1C(=O)n1nc(N)c2ccc(C3CC3(F)F)nc21` (stereo not shown) [Example 41, (3-amino-6-(2,2-difluorocyclopropyl)-1H-pyrazolo[3,4-b]pyridin-1-yl)(o-tolyl)methanone]: 0.15 µM; `Cc1ccccc1C(=O)n1nc(N)c2ccc(N3CC(F)(F)C3)nc21` [Example 28, (3-amino-6-(3,3-difluoroazetidin-1-yl)-1H-pyrazolo[3,4-b]pyridin-1-yl)(o-tolyl)methanone]: 0.34 µM.
`Nc1nn(C(=O)c2ccccc2Cl)c2nc(N3CCCC3)ncc12` [Example 18, (3-amino-6-(pyrrolidin-1-yl)-1H-pyrazolo[3,4-d]pyrimidin-1-yl)(2-chlorophenyl)methanone]: the IC50 amounted to 0.35 µM.
Next, `COc1ccccc1C(=O)n1nc(N)c2ccc(C3=CCCC3)nc21` [Example 23, [3-amino-6-(cyclopenten-1-yl)pyrazolo[3,4-b]pyridin-1-yl]-(2-methoxyphenyl)methanone]: 0.02 µM; `Cc1ccccc1C(=O)n1nc(N)c2cc(Cl)c(C3CC3)nc21` [Example 9]: 0.39 µM.
Next, `COc1ccccc1C(=O)n1nc(N)c2cc(Cl)c(C3CC3)nc21` [Example 8, (3-amino-5-chloro-6-cyclopropyl-1H-pyrazolo[3,4-b]pyridin-1-yl)(2-methoxyphenyl)methanone]: 0.056 µM; `C[C@H]1C(=O)NCC[C@H]1C(=O)n1nc(N)c2ccc(C3CC3)nc21` (racemic) [Example 59, (3RS,4RS)-4-(3-amino-6-cyclopropylpyrazolo[3,4-b]pyridine-1-carbonyl)-3-methylpiperidin-2-one]: 0.033 µM; `COc1ccccc1C(=O)n1nc(N)c2cc3c(nc21)CC(C)(C)CC3` [Example 21, (3-amino-7,7-dimethyl-5,6,7,8-tetrahydro-1H-pyrazolo[3,4-b]quinolin-1-yl)(2-methoxyphenyl)methanone]: 0.14 µM.
For `Nc1nn(C(=O)C2CCNC(=O)C2)c2nc(C3CC3)ccc12` (stereo not shown) [Example 69, 4-(3-amino-6-cyclopropyl-1H-pyrazolo[3,4-b]pyridine-1-carbonyl)piperidin-2-one], the IC50 is 0.079 µM.
The result for `COc1ccccc1C(=O)n1nc(N)c2cc(F)c(N3CC(F)(F)C3)nc21` [Example 14, (3-amino-6-(3,3-difluoroazetidin-1-yl)-5-fluoro-1H-pyrazolo[3,4-b]pyridin-1-yl)(2-methoxyphenyl)methanone] reads 0.095 µM.
For the compound `COc1ccccc1C(=O)n1nc(N)c2ccc(C3=CCCCO3)nc21` [Example 22, [3-amino-6-(3,4-dihydro-2H-pyran-6-yl)pyrazolo[3,4-b]pyridin-1-yl]-(2-methoxyphenyl)methanone], the IC50 was determined as 0.44 µM.
As to `COc1ccccc1C(=O)n1nc(N)c2ccc(C3=CCCCC3)nc21` [Example 6, [3-amino-6-(cyclohexen-1-yl)pyrazolo[3,4-b]pyridin-1-yl]-(2-methoxyphenyl)methanone], the IC50 was determined as 0.11 µM.
Next, `Cc1ccccc1C(=O)n1nc(N)c2cc(F)c(N3CCCC3)nc21` [Example 13, (3-amino-5-fluoro-6-(pyrrolidin-1-yl)-1H-pyrazolo[3,4-b]pyridin-1-yl)(o-tolyl)methanone]: 0.11 µM; `Cc1ccccc1C(=O)n1nc(N)c2ccc(C3(C)CC3)nc21` [Example 48, (3-amino-6-(1-methylcyclopropyl)-1H-pyrazolo[3,4-b]pyridin-1-yl)(o-tolyl)methanone]: 0.13 µM.
Next, `COc1ccccc1C(=O)n1nc(N)c2ccc([C@H]3C[C@@H]3F)nc21` (racemic) [Example 39, (3-amino-6-((1RS,2SR)-2-fluorocyclopropyl)-1H-pyrazolo[3,4-b]pyridin-1-yl)(2-methoxyphenyl)methanone]: 0.064 µM; `Cc1ncccc1C(=O)n1nc(N)c2ccc(C3CC3(F)F)nc21` (stereo not shown) [Example 49, (3-amino-6-(2,2-difluorocyclopropyl)-1H-pyrazolo[3,4-b]pyridin-1-yl)(2-methylpyridin-3-yl)methanone]: 0.022 µM; `COc1c(F)cccc1C(=O)n1nc(N)c2ccc(C3CC3)nc21` [Example 57, (3-amino-6-cyclopropyl-1H-pyrazolo[3,4-b]pyridin-1-yl)(3-fluoro-2-methoxyphenyl)methanone]: 0.11 µM.
